Measurements from ChEMBL document CHEMBL4219117, “Chemical synthesis of an indomethacin ester prodrug and its metabolic activation by human carboxylesterase 1” (Bioorg Med Chem Lett, 2018).

T1: Liver carboxylesterase 1 (Homo sapiens, UniProt P23141)
T1 sequence (P23141 whole entry): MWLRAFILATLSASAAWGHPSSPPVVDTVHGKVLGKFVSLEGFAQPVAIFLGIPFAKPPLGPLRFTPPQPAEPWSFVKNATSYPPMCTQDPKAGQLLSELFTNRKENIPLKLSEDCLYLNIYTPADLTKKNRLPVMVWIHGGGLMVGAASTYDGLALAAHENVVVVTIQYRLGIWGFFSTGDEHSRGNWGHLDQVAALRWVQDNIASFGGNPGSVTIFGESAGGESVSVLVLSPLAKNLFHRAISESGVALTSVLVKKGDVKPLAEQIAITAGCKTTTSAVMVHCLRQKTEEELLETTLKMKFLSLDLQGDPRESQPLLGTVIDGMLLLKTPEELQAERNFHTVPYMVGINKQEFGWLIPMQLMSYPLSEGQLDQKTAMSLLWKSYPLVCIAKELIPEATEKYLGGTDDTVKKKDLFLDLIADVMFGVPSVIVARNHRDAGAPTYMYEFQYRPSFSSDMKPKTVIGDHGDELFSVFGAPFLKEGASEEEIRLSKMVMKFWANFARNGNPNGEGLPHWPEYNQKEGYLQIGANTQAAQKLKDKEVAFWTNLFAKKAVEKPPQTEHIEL

B1: Liver carboxylesterase 1 (Homo sapiens) (protein)
chain: T1 sequence (P23141 whole entry)

How the values were obtained:
Liver carboxylesterase 1 [1] = molecular target: T1, Liver carboxylesterase 1; test: Prodrug activation in human liver microsomes assessed as carboxylesterase 1-mediated indomethacin formation at 0.25 mM after 30 to 1440 mins by HPLC analysis; conditions: 250 µM
Liver carboxylesterase 1 [2] = molecular target: T1, Liver carboxylesterase 1; test: Prodrug activation in human intestine microsomes assessed as carboxylesterase 1-mediated indomethacin formation at 0.25 mM after 30 to 1440 mins by HPLC analysis; conditions: 250 µM
Liver carboxylesterase 1 [3] = molecular target: T1, Liver carboxylesterase 1; test: Prodrug activation assessed as human carboxylesterase 1b-mediated indomethacin formation by measuring intrinsic clearance per mg protein at 0.003125 to 0.10 mM after 30 to 180 mins by HPLC based Michaelis-Menten plot analysis; conditions: isolated protein, 100 µM
[4] = substrate: CCCCOC(=O)Cc1c(C)n(C(=O)c2ccc(Cl)cc2)c2ccc(OC)cc12; test: (§1) Prodrug activation assessed as human carboxylesterase 1b-mediated indomethacin formation at 0.003125 to 0.10 mM after 30 to 180 mins by HPLC based Michaelis-Menten plot analysis
[5] = substrate: CCCCSC(=O)Cc1c(C)n(C(=O)c2ccc(Cl)cc2)c2ccc(OC)cc12; test: as §1
[6] = substrate: CC[C@@H](C)OC(=O)Cc1c(C)n(C(=O)c2ccc(Cl)cc2)c2ccc(OC)cc12; test: as §1
[7] = substrate: CC[C@@H](OC(=O)Cc1c(C)n(C(=O)c2ccc(Cl)cc2)c2ccc(OC)cc12)c1ccccc1; test: as §1
[8] = substrate: CC[C@H](C)OC(=O)Cc1c(C)n(C(=O)c2ccc(Cl)cc2)c2ccc(OC)cc12; test: as §1
[9] = substrate: CC[C@H](OC(=O)Cc1c(C)n(C(=O)c2ccc(Cl)cc2)c2ccc(OC)cc12)c1ccccc1; test: as §1
[10] = substrate: COc1ccc2c(c1)c(CC(=O)OCC(C)(C)C)c(C)n2C(=O)c1ccc(Cl)cc1; test: as §1
[11] = substrate: COc1ccc2c(c1)c(CC(=O)OCC(C)C)c(C)n2C(=O)c1ccc(Cl)cc1; test: as §1

Row | Molecule | Drug metabolism (Liver carboxylesterase 1 [1]) | Drug metabolism (Liver carboxylesterase 1 [2]) | clearance (Liver carboxylesterase 1 [3]) [µL/min/mg] | further results
1 | CCCCOC(=O)Cc1c(C)n(C(=O)c2ccc(Cl)cc2)c2ccc(OC)cc12 | Metabolite_Detected | Metabolite_Detected | 340 | 
2 | CCCCSC(=O)Cc1c(C)n(C(=O)c2ccc(Cl)cc2)c2ccc(OC)cc12 | Metabolite_Detected | Metabolite_Detected | 380 | 
3 | CC[C@H](C)OC(=O)Cc1c(C)n(C(=O)c2ccc(Cl)cc2)c2ccc(OC)cc12 | Metabolite_Notdetected | Metabolite_Notdetected | 2.1 | 
4 | CC[C@H](OC(=O)Cc1c(C)n(C(=O)c2ccc(Cl)cc2)c2ccc(OC)cc12)c1ccccc1 | Metabolite_Notdetected | Metabolite_Notdetected | 0.3 | 
5 | CC[C@@H](C)OC(=O)Cc1c(C)n(C(=O)c2ccc(Cl)cc2)c2ccc(OC)cc12 | Metabolite_Notdetected | Metabolite_Notdetected | 4.8 | 
6 | CC[C@@H](OC(=O)Cc1c(C)n(C(=O)c2ccc(Cl)cc2)c2ccc(OC)cc12)c1ccccc1 | Metabolite_Notdetected | Metabolite_Notdetected | 7 | 
7 | COc1ccc2c(c1)c(CC(=O)OCC(C)(C)C)c(C)n2C(=O)c1ccc(Cl)cc1 | Metabolite_Detected | Metabolite_Notdetected | 69 | 
8 | COc1ccc2c(c1)c(CC(=O)OCC(C)C)c(C)n2C(=O)c1ccc(Cl)cc1 | Metabolite_Detected | Metabolite_Detected | 89 | 
9 | COc1ccc2c(c1)c(CC(=O)OC(C)(C)C)c(C)n2C(=O)c1ccc(Cl)cc1 | Metabolite_Notdetected | Metabolite_Notdetected |  | 
10 | B1 |  |  |  | Km [4]: 4.4 µM; Vmax [4]: 0.00151 µmol/min; Km [5]: 2.1 µM; Vmax [5]: 0.0008 µmol/min; Km [6]: 10.1 µM; Vmax [6]: 4.9e-05 µmol/min; Km [7]: 2.9 µM; Vmax [7]: 2.1e-05 µmol/min; Km [8]: 48.5 µM; Vmax [8]: 0.000103 µmol/min; Km [9]: 6.5 µM; Vmax [9]: 2e-06 µmol/min; Km [10]: 4.6 µM; Vmax [10]: 0.000322 µmol/min; Km [11]: 13.7 µM; Vmax [11]: 0.00122 µmol/min
